Test results as given in patent publication US20070049564A1 (Wyeth, priority 2005, published 2007).
In brackets after ≈: the same amount, converted by molar mass. Read-outs that look alike come from different tables or passages of the source.

How the values were obtained:
Assay in all cases: MIC, broth microdilution
E. coli GC 2270 = details: Escherichia coli
S. aureus GC 1131 = details: Staphylococcus aureus
E. coli GC 2236 = details: Escherichia coli
Method: Antimicrobial susceptibility testing. The in vitro activities of the antibiotics are determined by the broth microdilution method as recommended by the National Committee for Clinical Laboratory Standards (NCCLS) (1). Mueller-Hinton II broth (MHBII)(BBL Cockeysville, Md.) is the medium employed in the testing procedures. Microtiter plates containing serial dilutions of each antimicrobial agent are inoculated with each organism to yield the appropriate density (10^5 CFU/ml) in a 100 μl final volume. The plates are incubated for 18-22 hours at 35° C. in ambient air. […] Standard Pharmacological Test Procedures
Presented in Tables I-XIII are representative compounds of Formula I which were evaluated against a panel of 40 selected gram-positive and gram-negative bacteria strains by pre-incubation in water, mouse serum or human serum. Representative compounds were first incubated in mouse serum for an hour prior to the in vitro testing against a panel of selected gram-positive and gram-negative bacteria strains. All compounds were also pre-incubated in water for an hour prior to testing as control. Representative compounds of Formula I were incubated in human serum prior to MIC determination.

E. faecium GC 4556 = details: Enterococcus faecium
E. coli GC 2271 = details: Escherichia coli
S. aureus GC 6335 = details: Staphylococcus aureus
P. aeruginosa GC 2214 = details: Pseudomonas aeruginosa
E. coli GC 4559 = details: Escherichia coli
E. coli GC 2233 = details: Escherichia coli
S. aureus GC 2216 = details: Staphylococcus aureus
S. epidermidis GC 4935 = details: Staphylococcus epidermidis
S. pyogenes GC 4563 = details: Streptococcus pyogenes
E. coli GC 2234 = details: Escherichia coli
S. pneumoniae+ GC 4465 = details: Streptococcus pneumoniae
E. coli GC 2235 = details: Escherichia coli
c. albicans GC 3066 = test system: c. albicans GC 3066
E. faecalis GC 2242 = details: Enterococcus faecalis
S. aureus GC 1079 = details: Staphylococcus aureus
E. coli GC 1073 = details: Escherichia coli

With CC(C)COC(=O)N(CC(=O)Nc1cc(N(C)C)c2c(c1O)C(=O)C1=C(O)[C@]3(O)C(=O)C(C(N)=O)=C(O)[C@@H](N(C)C)[C@@H]3C[C@@H]1C2)C(C)(C)C [Example 59, isobutyl 2-{[(5aR,6aS,7S,10aS)-9-(aminocarbonyl)-4,7-bis(dimethylamino)-1,8,10a,11-tetrahydroxy-10,12-dioxo-5,5a,6,6a,7,10,10a,12-octahydrotetracen-2-yl]amino}-2-oxoethyl(tert-butyl)carbamate] the MIC (E. coli GC 2270; GC2270, read-out: MINIMAL INHIBITORY CONCENTRATION MIC, Human Serum) was > 64 µg/mL, the MIC (E. coli GC 2270; GC2270, read-out: MINIMAL INHIBITORY CONCENTRATION MIC, Mouse Serum) was > 64 µg/mL and the MIC (E. coli GC 2270; GC2270, read-out: MINIMAL INHIBITORY CONCENTRATION MIC, Water) was > 64 µg/mL. For the same molecule, the MIC (S. aureus GC 1131; GC1131, read-out: MINIMAL INHIBITORY CONCENTRATION MIC, Human Serum) was 4 µg/mL (≈ 5.83 µM), the MIC (S. aureus GC 1131; GC1131, read-out: MINIMAL INHIBITORY CONCENTRATION MIC, Mouse Serum) was 4 µg/mL (≈ 5.83 µM) and the MIC (S. aureus GC 1131; GC1131, read-out: MINIMAL INHIBITORY CONCENTRATION MIC, Water) was 4 µg/mL (≈ 5.83 µM). For the same molecule, the MIC (E. coli GC 2236; GC2236, read-out: MINIMAL INHIBITORY CONCENTRATION MIC, Human Serum) was > 64 µg/mL, the MIC (E. coli GC 2236; GC2236, read-out: MINIMAL INHIBITORY CONCENTRATION MIC, Mouse Serum) was > 64 µg/mL and the MIC (E. coli GC 2236; GC2236, read-out: MINIMAL INHIBITORY CONCENTRATION MIC, Water) was > 64 µg/mL. For the same molecule, the MIC (E. faecium GC 4556; GC4556, read-out: MINIMAL INHIBITORY CONCENTRATION MIC, Human Serum) was 4 µg/mL (≈ 5.83 µM), the MIC (E. faecium GC 4556; GC4556, read-out: MINIMAL INHIBITORY CONCENTRATION MIC, Mouse Serum) was 4 µg/mL (≈ 5.83 µM) and the MIC (E. faecium GC 4556; GC4556, read-out: MINIMAL INHIBITORY CONCENTRATION MIC, Water) was 4 µg/mL (≈ 5.83 µM). For the same molecule, the MIC (E. coli GC 2271; GC2271, read-out: MINIMAL INHIBITORY CONCENTRATION MIC, Human Serum) was > 64 µg/mL, the MIC (E. coli GC 2271; GC2271, read-out: MINIMAL INHIBITORY CONCENTRATION MIC, Mouse Serum) was > 64 µg/mL and the MIC (E. coli GC 2271; GC2271, read-out: MINIMAL INHIBITORY CONCENTRATION MIC, Water) was > 64 µg/mL. It also gave an MIC (S. aureus GC 6335; GC6335, read-out: MINIMAL INHIBITORY CONCENTRATION MIC, Human Serum) of 4 µg/mL (≈ 5.83 µM), an MIC (S. aureus GC 6335; GC6335, read-out: MINIMAL INHIBITORY CONCENTRATION MIC, Mouse Serum) of 4 µg/mL (≈ 5.83 µM) and an MIC (S. aureus GC 6335; GC6335, read-out: MINIMAL INHIBITORY CONCENTRATION MIC, Water) of 4 µg/mL (≈ 5.83 µM). The MIC (P. aeruginosa GC 2214; GC2214, read-out: MINIMAL INHIBITORY CONCENTRATION MIC, Human Serum) was > 64 µg/mL, the MIC (P. aeruginosa GC 2214; GC2214, read-out: MINIMAL INHIBITORY CONCENTRATION MIC, Mouse Serum) was > 64 µg/mL and the MIC (P. aeruginosa GC 2214; GC2214, read-out: MINIMAL INHIBITORY CONCENTRATION MIC, Water) was > 64 µg/mL. The MIC (E. coli GC 4559; GC4559, read-out: MINIMAL INHIBITORY CONCENTRATION MIC, Human Serum) was > 64 µg/mL, the MIC (E. coli GC 4559; GC4559, read-out: MINIMAL INHIBITORY CONCENTRATION MIC, Mouse Serum) was 64 µg/mL (≈ 93.3 µM) and the MIC (E. coli GC 4559; GC4559, read-out: MINIMAL INHIBITORY CONCENTRATION MIC, Water) was > 64 µg/mL. The MIC (E. coli GC 2233; GC2233, read-out: MINIMAL INHIBITORY CONCENTRATION MIC, Human Serum) was > 64 µg/mL, the MIC (E. coli GC 2233; GC2233, read-out: MINIMAL INHIBITORY CONCENTRATION MIC, Mouse Serum) was > 64 µg/mL and the MIC (E. coli GC 2233; GC2233, read-out: MINIMAL INHIBITORY CONCENTRATION MIC, Water) was > 64 µg/mL. It also gave an MIC (S. aureus GC 2216; GC2216, read-out: MINIMAL INHIBITORY CONCENTRATION MIC, Human Serum) of 4 µg/mL (≈ 5.83 µM), an MIC (S. aureus GC 2216; GC2216, read-out: MINIMAL INHIBITORY CONCENTRATION MIC, Mouse Serum) of 4 µg/mL (≈ 5.83 µM) and an MIC (S. aureus GC 2216; GC2216, read-out: MINIMAL INHIBITORY CONCENTRATION MIC, Water) of 4 µg/mL (≈ 5.83 µM). The MIC (S. epidermidis GC 4935; GC4935, read-out: MINIMAL INHIBITORY CONCENTRATION MIC, Human Serum) was 4 µg/mL (≈ 5.83 µM), the MIC (S. epidermidis GC 4935; GC4935, read-out: MINIMAL INHIBITORY CONCENTRATION MIC, Mouse Serum) was 4 µg/mL (≈ 5.83 µM) and the MIC (S. epidermidis GC 4935; GC4935, read-out: MINIMAL INHIBITORY CONCENTRATION MIC, Water) was 4 µg/mL (≈ 5.83 µM). For the same molecule, the MIC (S. pyogenes GC 4563; GC4563, read-out: MINIMAL INHIBITORY CONCENTRATION MIC, Human Serum) was 4 µg/mL (≈ 5.83 µM), the MIC (S. pyogenes GC 4563; GC4563, read-out: MINIMAL INHIBITORY CONCENTRATION MIC, Mouse Serum) was 4 µg/mL (≈ 5.83 µM) and the MIC (S. pyogenes GC 4563; GC4563, read-out: MINIMAL INHIBITORY CONCENTRATION MIC, Water) was 4 µg/mL (≈ 5.83 µM). The MIC (E. coli GC 2234; GC2234, read-out: MINIMAL INHIBITORY CONCENTRATION MIC, Human Serum) was > 64 µg/mL, the MIC (E. coli GC 2234; GC2234, read-out: MINIMAL INHIBITORY CONCENTRATION MIC, Mouse Serum) was > 64 µg/mL and the MIC (E. coli GC 2234; GC2234, read-out: MINIMAL INHIBITORY CONCENTRATION MIC, Water) was > 64 µg/mL. For the same molecule, the MIC (S. pneumoniae+ GC 4465; read-out: MINIMAL INHIBITORY CONCENTRATION MIC, Human Serum) was 8 µg/mL (≈ 11.7 µM), the MIC (S. pneumoniae+ GC 4465; read-out: MINIMAL INHIBITORY CONCENTRATION MIC, Mouse Serum) was 4 µg/mL (≈ 5.83 µM) and the MIC (S. pneumoniae+ GC 4465; read-out: MINIMAL INHIBITORY CONCENTRATION MIC, Water) was 8 µg/mL (≈ 11.7 µM). The MIC (E. coli GC 2235; GC2235, read-out: MINIMAL INHIBITORY CONCENTRATION MIC, Human Serum) was > 64 µg/mL, the MIC (E. coli GC 2235; GC2235, read-out: MINIMAL INHIBITORY CONCENTRATION MIC, Mouse Serum) was > 64 µg/mL and the MIC (E. coli GC 2235; GC2235, read-out: MINIMAL INHIBITORY CONCENTRATION MIC, Water) was > 64 µg/mL. The MIC (c. albicans GC 3066; Candida albicans, GC3066, read-out: MINIMAL INHIBITORY CONCENTRATION MIC) was > 64 µg/mL, the “MINIMAL INHIBITORY CONCENTRATION MIC” value (c. albicans GC 3066; Human Serum) was >64 UG/ML and the “MINIMAL INHIBITORY CONCENTRATION MIC” value (c. albicans GC 3066; Mouse Serum) was >64 UG/ML. For the same molecule, the MIC (E. faecalis GC 2242; GC2242, read-out: MINIMAL INHIBITORY CONCENTRATION MIC, Human Serum) was 4 µg/mL (≈ 5.83 µM), the MIC (E. faecalis GC 2242; GC2242, read-out: MINIMAL INHIBITORY CONCENTRATION MIC, Mouse Serum) was 2 µg/mL (≈ 2.92 µM) and the MIC (E. faecalis GC 2242; GC2242, read-out: MINIMAL INHIBITORY CONCENTRATION MIC, Water) was 4 µg/mL (≈ 5.83 µM). For the same molecule, the MIC (S. aureus GC 1079; GC1079, read-out: MINIMAL INHIBITORY CONCENTRATION MIC, Human Serum) was 2 µg/mL (≈ 2.92 µM), the MIC (S. aureus GC 1079; GC1079, read-out: MINIMAL INHIBITORY CONCENTRATION MIC, Mouse Serum) was 4 µg/mL (≈ 5.83 µM) and the MIC (S. aureus GC 1079; GC1079, read-out: MINIMAL INHIBITORY CONCENTRATION MIC, Water) was 8 µg/mL (≈ 11.7 µM). The MIC (E. coli GC 1073; GC1073, read-out: MINIMAL INHIBITORY CONCENTRATION MIC, Human Serum) was > 64 µg/mL, the MIC (E. coli GC 1073; GC1073, read-out: MINIMAL INHIBITORY CONCENTRATION MIC, Mouse Serum) was > 64 µg/mL and the MIC (E. coli GC 1073; GC1073, read-out: MINIMAL INHIBITORY CONCENTRATION MIC, Water) was > 64 µg/mL.
